The values that follow come from ChEMBL document CHEMBL1155182, “Diphenylmethylene hydroxamic acids as selective class IIa histone deacetylase inhibitors” (Bioorg Med Chem Lett, 2009).

The target in test [1] is Histone deacetylase 5 (Homo sapiens, UniProt Q9UQL6).
Description: Inhibition of human recombinant N-terminal FLAG-tagged HDAC5 (620-1122) expressed in baculovirus after 10 mins by fluorimetric analysis
For test [2], the target named is Histone deacetylase 4 (Homo sapiens, UniProt P56524).
Description: Inhibition of human recombinant N-terminal FLAG-tagged HDAC4 (612-1034) expressed in baculovirus after 10 mins by fluorimetric analysis
Test [3] has as its target T1, Histone deacetylase 7 (Homo sapiens, UniProt Q8WUI4).
T1 sequence (Q8WUI4 whole entry): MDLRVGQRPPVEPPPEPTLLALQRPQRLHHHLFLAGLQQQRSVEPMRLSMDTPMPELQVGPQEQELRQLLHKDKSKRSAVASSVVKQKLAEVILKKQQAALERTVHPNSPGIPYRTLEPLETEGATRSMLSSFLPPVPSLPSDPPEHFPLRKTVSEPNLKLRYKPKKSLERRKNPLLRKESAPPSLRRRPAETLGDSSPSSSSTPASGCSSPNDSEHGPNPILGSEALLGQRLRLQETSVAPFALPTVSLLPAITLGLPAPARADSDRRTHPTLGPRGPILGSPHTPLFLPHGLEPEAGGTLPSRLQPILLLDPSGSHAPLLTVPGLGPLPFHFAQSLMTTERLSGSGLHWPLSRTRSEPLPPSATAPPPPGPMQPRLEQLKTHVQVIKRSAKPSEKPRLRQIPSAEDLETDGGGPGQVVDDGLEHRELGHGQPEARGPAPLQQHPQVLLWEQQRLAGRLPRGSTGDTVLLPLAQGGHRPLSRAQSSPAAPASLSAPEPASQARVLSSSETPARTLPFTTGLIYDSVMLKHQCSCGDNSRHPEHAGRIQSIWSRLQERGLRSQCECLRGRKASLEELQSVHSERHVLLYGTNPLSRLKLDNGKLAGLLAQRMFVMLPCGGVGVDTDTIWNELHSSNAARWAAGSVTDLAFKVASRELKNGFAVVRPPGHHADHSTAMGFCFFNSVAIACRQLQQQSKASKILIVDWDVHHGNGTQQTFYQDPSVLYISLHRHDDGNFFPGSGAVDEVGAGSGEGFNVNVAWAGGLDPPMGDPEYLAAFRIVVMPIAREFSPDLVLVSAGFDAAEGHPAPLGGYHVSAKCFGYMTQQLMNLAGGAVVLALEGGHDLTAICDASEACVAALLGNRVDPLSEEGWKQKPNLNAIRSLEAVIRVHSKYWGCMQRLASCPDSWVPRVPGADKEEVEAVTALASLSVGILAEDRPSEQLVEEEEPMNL
Description: Inhibition of human recombinant N-terminal FLAG-tagged HDAC7 (438-915) expressed in baculovirus after 10 mins by fluorimetric analysis

Test [4] addresses Histone deacetylase. As to conditions: hek-293t.
Description: Inhibition of class 2a HDAC in HEK293T cells after 16 hrs by whole cell assay
In test [5] the target is Histone deacetylase. As to conditions: hek-293t. The source holds these as a separate data set.
Description: Inhibition of class 1 HDAC in HEK293T cells after 16 hrs by whole cell assay

Molecules are shown by their SMILES.

Chain of Histone deacetylase 4 (P56524 whole entry): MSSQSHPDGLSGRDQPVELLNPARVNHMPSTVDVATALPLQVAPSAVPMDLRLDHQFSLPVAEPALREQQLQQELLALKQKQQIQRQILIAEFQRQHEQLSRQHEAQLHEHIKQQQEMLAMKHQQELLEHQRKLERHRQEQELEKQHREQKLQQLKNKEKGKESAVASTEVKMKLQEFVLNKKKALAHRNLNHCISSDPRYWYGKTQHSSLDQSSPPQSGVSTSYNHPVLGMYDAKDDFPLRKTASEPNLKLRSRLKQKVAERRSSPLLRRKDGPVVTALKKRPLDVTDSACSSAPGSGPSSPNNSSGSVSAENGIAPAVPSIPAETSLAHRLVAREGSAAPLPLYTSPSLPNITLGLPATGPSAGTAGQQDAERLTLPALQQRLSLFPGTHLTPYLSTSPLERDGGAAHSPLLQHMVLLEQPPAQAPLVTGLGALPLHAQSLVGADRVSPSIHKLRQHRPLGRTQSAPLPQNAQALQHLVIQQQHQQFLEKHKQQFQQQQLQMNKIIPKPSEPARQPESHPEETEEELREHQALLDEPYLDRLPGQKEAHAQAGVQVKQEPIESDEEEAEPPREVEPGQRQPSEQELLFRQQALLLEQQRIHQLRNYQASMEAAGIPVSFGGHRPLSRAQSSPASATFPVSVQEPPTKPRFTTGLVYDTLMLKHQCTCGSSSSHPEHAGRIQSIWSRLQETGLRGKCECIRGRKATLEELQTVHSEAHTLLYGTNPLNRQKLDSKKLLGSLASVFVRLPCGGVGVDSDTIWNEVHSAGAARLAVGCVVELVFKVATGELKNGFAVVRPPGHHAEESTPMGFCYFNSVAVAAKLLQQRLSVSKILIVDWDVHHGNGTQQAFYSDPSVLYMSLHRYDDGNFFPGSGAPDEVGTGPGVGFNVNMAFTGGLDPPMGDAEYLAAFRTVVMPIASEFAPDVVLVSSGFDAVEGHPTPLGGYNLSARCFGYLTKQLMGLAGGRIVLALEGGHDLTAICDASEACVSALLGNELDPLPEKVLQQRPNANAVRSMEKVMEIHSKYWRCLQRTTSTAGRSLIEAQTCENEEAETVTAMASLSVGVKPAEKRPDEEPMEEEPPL
Chain of Histone deacetylase 5 (Q9UQL6 whole entry): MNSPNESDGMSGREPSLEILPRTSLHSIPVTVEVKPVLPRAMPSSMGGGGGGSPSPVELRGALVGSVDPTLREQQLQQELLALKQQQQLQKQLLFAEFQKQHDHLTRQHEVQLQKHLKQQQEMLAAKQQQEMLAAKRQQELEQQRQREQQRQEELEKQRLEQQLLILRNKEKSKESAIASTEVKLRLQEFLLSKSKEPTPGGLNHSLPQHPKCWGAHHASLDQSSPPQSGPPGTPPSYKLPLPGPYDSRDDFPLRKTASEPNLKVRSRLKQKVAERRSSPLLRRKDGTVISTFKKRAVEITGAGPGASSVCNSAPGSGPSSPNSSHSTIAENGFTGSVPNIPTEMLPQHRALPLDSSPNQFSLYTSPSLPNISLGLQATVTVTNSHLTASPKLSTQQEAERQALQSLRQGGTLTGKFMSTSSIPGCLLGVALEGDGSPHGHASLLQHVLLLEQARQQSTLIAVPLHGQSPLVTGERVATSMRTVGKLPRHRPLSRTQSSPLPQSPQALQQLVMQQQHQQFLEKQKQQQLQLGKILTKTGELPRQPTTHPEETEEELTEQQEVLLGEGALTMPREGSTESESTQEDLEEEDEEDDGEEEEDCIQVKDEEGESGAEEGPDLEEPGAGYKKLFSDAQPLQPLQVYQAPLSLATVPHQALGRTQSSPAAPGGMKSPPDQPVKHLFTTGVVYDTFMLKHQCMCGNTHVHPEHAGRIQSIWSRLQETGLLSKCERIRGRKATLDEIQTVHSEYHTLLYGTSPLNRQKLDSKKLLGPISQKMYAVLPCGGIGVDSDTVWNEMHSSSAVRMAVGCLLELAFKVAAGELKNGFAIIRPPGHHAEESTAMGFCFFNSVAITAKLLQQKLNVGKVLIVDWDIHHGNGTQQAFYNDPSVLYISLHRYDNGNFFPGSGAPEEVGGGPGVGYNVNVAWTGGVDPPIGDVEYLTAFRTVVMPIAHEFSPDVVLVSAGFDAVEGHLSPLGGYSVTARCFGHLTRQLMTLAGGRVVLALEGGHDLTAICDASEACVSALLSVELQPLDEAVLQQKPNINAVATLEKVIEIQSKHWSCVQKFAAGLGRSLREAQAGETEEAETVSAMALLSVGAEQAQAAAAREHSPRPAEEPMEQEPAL

As a reminder, the IC50 is the midpoint of a concentration-inhibition curve. Read a low IC50 as higher potency. Regarding `CN1c2ccccc2C(C(=O)NO)c2ccccc21`, the IC50 in test [1] is 0.47 µM; in test [2], 1.91 µM.

Consider `O=C(NO)C(c1ccc(Cl)cc1)c1ccc(Cl)cc1`, for which the IC50 in test [1] is 0.21 µM; in test [3], 1.4 µM; in test [2], 0.96 µM.

As to `CC(C(=O)NO)c1ccccc1` (stereo not drawn), the IC50 in test [1], in test [3] and in test [2] was above 10 µM in each case.

Take `O=C(NO)C(c1ccc(F)cc1)c1ccc(F)cc1`: the IC50 in test [4] was 3.5 µM; in test [1], 0.28 µM; in test [3], 1.76 µM; in test [2], 1.1 µM; in test [5] it was above 50 µM.

For `CS(=O)(=O)Nc1ccc(C(C(=O)NO)c2ccc(NS(C)(=O)=O)cc2)cc1`, the IC50 was above 50 µM in test [4]; above 10 µM in test [1]; above 10 µM in test [3]; above 10 µM in test [2]; above 50 µM in test [5].

Regarding `O=C(NO)C(c1cccc(F)c1)c1cccc(F)c1`, the IC50 in test [1] was found to be 0.09 µM; in test [2], 0.7 µM.

Take `O=C(NO)C(Cc1ccccc1)c1ccccc1` (stereo not drawn): the IC50 in test [1], in test [3] and in test [2] was above 10 µM each time.

Turning to `O=C(CC(c1ccccc1)c1ccccc1)NO`, the IC50 in test [1], in test [3] and in test [2] was above 10 µM each time.

On to `O=C(NO)C1c2ccccc2Cc2ccccc21`, for which the IC50 was 1.46 µM in test [1] and 2.32 µM in test [2].

On to `O=C(NO)C(c1ccc2c(c1)CCO2)c1ccc2c(c1)CCO2`, for which the IC50 is 0.9 µM in test [4]; 0.11 µM in test [1]; 0.11 µM in test [3]; 0.21 µM in test [2]; above 50 µM in test [5].

For `CC(C(=O)NO)(c1ccccc1)c1ccccc1`, the IC50 in test [4] was 16 µM; in test [1], 1.2 µM; in test [3], 4.8 µM; in test [2] it was 4.5 µM; in test [5], above 50 µM.
